According to patent publication US8623911B2, “Boron-containing small molecules as anti-protozoal agent” (Anacor Pharmaceuticals, Inc., priority 2010, dated 2014):

Assays:
[1] = tested on: TREU 667 strain of T. b. brucei; assay: Chronic CNS Model [Murine Stage 2 HAT]; type: in vivo; details: treated on Day 21 (10 mg/kg), negative control
Method: Mice were infected with 10,000 parasites of the TREU 667 strain of T. b. brucei. Twenty one days post-infection mice were treated with a dose of between 6 and 100 mg/kg of a compound of the invention, either BID or QD for 7 days intraperitoneally (IP) or orally (PO). Positive control mice were treated with Diminazene (10 mg/kg, IP) on Day 4 post-infection. Negative control mice were treated with Diminazene (10 mg/kg, PO) on Day 21. Since Diminazene is not able to penetrate the CNS, mice treated at Day 21 are not able to cure the infection. Starting 1 week after treatment, mice were checked for parasitemia by microscopic examination of smears prepared from tail vein blood. Parasite positive animals were immediately removed from the cages and euthanized. Animals were considered to be cured of a CNS infection if they were aparasitemic for at least 180 days after the end of the treatment period.

[2] = tested on: LAB 110 Eatro strain of T. b. brucei; assay: Acute Murine Model A [Murine Stage 1 HAT]; type: in vivo; details: for Mean Survival Days: mice infected with T. b. brucei, 10 mg/kg, BID, orally, 4 days
Method: Female Swiss Webster mice were inoculated with 250,000 parasites of the LAB 110 Eatro strain of T. b. brucei. 24 hrs post-infection, treatment was initiated by administration of a compound of the invention BID for 4 days with 20 mg/kg/dose (40 mg/kg/day) intraperitoneally (IP) or orally (PO), 5 mg/kg BID or 10 mg/kg BID orally (PO). 3 mice per group were treated with a particular compound of the invention. Mice were checked for parasitemia weekly by microscopic examination of smears prepared from tail vein blood. Animals remaining parasite free for more than 30 days beyond the end of the treatment period were considered cured. Control untreated animals typically succumbed to the infection within 4-5 days following i.p. inoculation with parasites. Mice were monitored for 30 days for survival. Pentamidine at 2 mg/kg IP was used as the positive control. After 10 days, 0% of the untreated mice were parasite free. After 10 days, 67% of mice treated PO with 10 mg/kg BID of N-(1-Hydroxy-3,4-dihydro-1H-benzo[c][1,2]oxaborinin-7-yl)-4-methoxy-benzamide (M19) were parasite free. After 30 days, 100% of mice treated PO with 10 mg/kg BID of 4-fluoro-N-(1-hydroxy-3,4-dihydro-1H-benzo[c][1,2]oxaborinin-7-yl)-2-trifluoromethyl-benzamide (M1) were parasite free.

[3] = tested on: MDCK-MDR1 cells; assay: in vitro; type: in vitro ADME, canine; details: 3 μM test compound
Method: (§1) MDCK-MDR1 cells (Madin-Darby canine kidney cells transfected with the human MDR1 gene) (Dr. Piet Borst, NKI-AVL, Amsterdam, The Netherlands) were seeded at 300,000 cells per well onto microporous, polycarbonate membranes in 12 well Costar Transwell® plates (Corning, Corning, N.Y.). The medium was removed and replaced with fresh cell culture medium approximately 24 hours after plating. Cells attained confluency and were ready for use in the transport assay after 72 hours of incubation.
(§2) A stock solution of each compound was prepared in DMSO at a concentration of 10 mg/mL. Stock solutions were further diluted in DMSO to a concentration of 1 mM for use in the assay. The final assay concentration of test compound in each incubation mixture was 3 μM and the final concentration of DMSO was 0.3%.
(§3) Cell cultures were pre-incubated with Transport Medium (TM), consisting of Hanks Balanced Salt Solution (HBSS), 25 mM glucose, and 25 mM HEPES, with and without the known P-gp inhibitor GF120918 (2 μM final assay concentration), for 30-60 minutes prior to the addition of test and control compounds. Following the pre-incubation period, transepithelial electrical resistance (TEER) measurements were taken on each insert to insure the integrity of the monolayer. The range for TEER values was 45-85Ω·cm^2. Transport medium was removed. Fresh transport media (1.5 mL) with or without GF120918 was added to the basolateral chambers. Solutions of the test compound were diluted into TM and added to the appropriate wells in triplicate (400 μL/well) at a final concentration of 3 μM with and without GF120918. The final concentration of DMSO was 0.3%. Control compounds were tested in triplicate at a final concentration of 3 μM. Cell monolayers were incubated with shaking (160 rpm) at 37° C. with 5% CO2 in a humidified incubator for one hour. Following the incubation, all plates were removed from the incubator. Inserts were removed from the plates and TEER measurements were again taken on each insert prior to removing samples for analysis to ensure no degradation of the tight junctions during the assay. An aliquot was taken from each receiver and diluted 1:3 with organic solvent (methanol) to assess transport of each compound across the monolayer. An aliquot was taken from each donor and diluted 1:2 with organic solvent (methanol) and then again 1:50 with matrix (50% methanol/50% TM) to assess mass balance within the study. All samples were assayed for test compound concentrations by LC-MS/MS using electrospray ionization.

[4] = tested on: P-gp (human MDR1); assay: in vitro; type: in vitro ADME, canine; details: dog, MDCK-MDR1; 3 μM test compound; without GF120918; read-out: MDCK-MCR1 Papp
Method: as §1, §2, §3

Structure (SMILES) | day by which all animals relapsed to exhibit blood parasitemia [1] | Mean Survival Days [2] | MDCK-MCR1 AQ [3] | Papp at 1 h, 3 µM [4] | mice parasite free after 10 days ([2]; female Swiss Webster mice, PO 10 mg/kg BID for 4 days, after 10 days)
N=C(N)c1ccc(/N=N/Nc2ccc(C(=N)N)cc2)cc1 [Diminazene, reference compound] | ≤ 56 days | – | – | – | –
O=C(Nc1ccc2c(c1)B(O)OCC2)c1ccccc1Cl [M5, 2-Chloro-N-(1-hydroxy-3,4-dihydro-1H-benzo[c][1,2]oxaborinin-7-yl)-benzamide] | – | 7 days | 0.1 | 70.7 ×10⁻⁶ cm/s | –
O=C(Nc1ccc2c(c1)B(O)OCC2)c1ccccc1Br [M8, 2-Bromo-N-(1-hydroxy-3,4-dihydro-1H-benzo[c][1,2]oxaborinin-7-yl)-benzamide] | – | 5.6 days | – | – | –
CCc1ccc(C(=O)Nc2ccc3c(c2)B(O)OCC3)cc1 [M12, 4-Ethyl-N-(1-hydroxy-3,4-dihydro-1H-benzo[c][1,2]oxaborinin-7-yl)-benzamide] | – | 8 days | −0.04 | 80.3 ×10⁻⁶ cm/s | –
CC(C)(C)c1ccc(C(=O)Nc2ccc3c(c2)B(O)OCC3)cc1 [M14, 4-tert-Butyl-N-(1-hydroxy-3,4-dihydro-1H-benzo[c][1,2]oxaborinin-7-yl)-benzamide] | – | 3.6 days | – | – | –
O=C(Nc1ccc2c(c1)B(O)OCC2)c1ccccc1C(F)(F)F [M15, N-(1-Hydroxy-3,4-dihydro-1H-benzo[c][1,2]oxaborinin-7-yl)-2-trifluoromethyl-benzamide] | – | >30 days | – | – | –
COc1ccc(C(=O)Nc2ccc3c(c2)B(O)OCC3)cc1 [M19, N-(1-Hydroxy-3,4-dihydro-1H-benzo[c][1,2]oxaborinin-7-yl)-4-methoxybenzamide] | – | 9 days | – | – | 67%
O=C(Nc1ccc2c(c1)B(O)OCC2)c1ccc(Cl)cc1Cl [M27, 2,4-Dichloro-N-(1-hydroxy-3,4-dihydro-1H-benzo[c][1,2]oxaborinin-7-yl)-benzamide] | – | >30 days | −0.03 | 85.1 ×10⁻⁶ cm/s | –
O=C(Nc1ccc2c(c1)B(O)OCC2)c1ccc(Cl)cc1F [M29, 4-Chloro-2-fluoro-N-(1-hydroxy-3,4-dihydro-1H-benzo[c][1,2]oxaborinin-7-yl)-benzamide] | – | >30 days | −0.04 | 80.4 ×10⁻⁶ cm/s | –
COC(=O)c1ccc(C(=O)Nc2ccc3c(c2)B(O)OCC3)cc1 [M40, N-(1-Hydroxy-3,4-dihydro-1H-benzo[c][1,2]oxaborinin-7-yl)-terephthalamic acid methyl ester] | – | 4 days | – | – | –
O=S(=O)(Nc1ccc2c(c1)B(O)OCC2)c1ccc(Cl)cc1 [M43, 4-Chloro-N-(1-hydroxy-3,4-dihydro-1H-benzo[c][1,2]oxaborinin-7-yl)-benzenesulfonamide] | – | – | 0.05 | 64.9 ×10⁻⁶ cm/s | –
Cc1ccc(S(=O)(=O)Nc2ccc3c(c2)B(O)OCC3)cc1 [M46, N-(1-Hydroxy-3,4-dihydro-1H-benzo[c][1,2]oxaborinin-7-yl)-4-methylbenzenesulfonamide] | – | 5 days | 0.05 | 77.1 ×10⁻⁶ cm/s | –
CC(C)c1ccc(S(=O)(=O)Nc2ccc3c(c2)B(O)OCC3)cc1 [M47, N-(1-Hydroxy-3,4-dihydro-1H-benzo[c][1,2]oxaborinin-7-yl)-4-isopropyl-benzenesulfonamide] | – | 9 days | 0.04 | 64.8 ×10⁻⁶ cm/s | –
CC1(C)COB(O)c2cc(NC(=O)c3ccc(F)cc3C(F)(F)F)ccc21 [M51] | – | 3.6 days | – | – | –
